Results on three molecules are retold here after US20230190777A1, “MAMMALIAN MILK OLIGOSACCHARIDES PREVENT VIRAL INFECTION OF HUMAN EPITHELIUM” (The Regents of the University of California, priority 2020, published 2023).

One assay has as its system Tulane virus. As to the kind of experiment: Tulane virus infection of MK2-LLC cells after HMO pre-incubation (imaging of adherent cells). The note with it: HMO 2 mg/ml pre-incubated 16 hours, MOI 0.001, compared to cells in the absence of an HMO (FIG. 1). In kind it is cell-based, monkey.
For assay [1], the system named is human coronavirus (HCoV-229E). As to the kind of experiment: HCoV-229E infection of A549 cells after HMO pre-incubation (imaging of adherent cells). Format: cell-based. The note with it: HMO 2 mg/ml pre-incubated 16 hours, MOI 0.01, up to three days post-infection (FIG. 2). On the procedure:
Monkey kidney epithelial (MK2-LLC) cells or human alveolar epithelial (A549) cells were seeded in 12-well plates at 1E5 cells per well.
24-hours post incubation, cells were washed with serum-free media and incubated with the particular HMO at 2 mg/ml final concentration.
16-hours post HMO incubation, the particular virus (for MK2-LLC cells this was Tulane virus, at a multiplicity of infection (MOI) of 0.001; for A549 cells this was human coronavirus (HCoV-229E), at an MOI of 0.01) was added and infection was allowed to proceed.
Images of adherent (live) cells were recorded two-days post infection after aspirating and washing cells with PBS. All wells were washed on Day 3 prior to imaging.
It was hypothesized that HMOs enhance cellular adhesion, cell structural integrity and modulate tight junction proteins as a generalized function regardless of the organ from which the epithelial cells are derived, and this function in turn alters the response to pathogenic challenges. […] As proof-of-concept, human alveolar epithelial (A549) cells were incubated in the presence of physiological levels of an HMO (2′-FL or 3′-SL) for 16 hours and infected the cells with a human coronavirus (HCoV-229E).

Assay [2] concerns Type I (IFN-α1, IFN-β1) and Type III interferons (IFN-λ1, IFN-λ2, and IFN-λ3). As to the kind of experiment: Host-cell interferon response during HCoV-229E infection of A549 cells (real-time PCR). Format: cell-based, human. Conditions: HMO 2 mg/ml pre-incubated 16 hours, MOI 0.01, 24 hours post infection (FIG. 6). (Real-time PCR tracks product formation cycle by cycle.)
The test system of assay [3] is human coronavirus (HCoV-229E). Format: cell-based. The note with it: HMO 2 mg/ml or 5 mg/ml for 16 hours before HCoV-229E (MOI 0.01), 48 hours of viral infection (FIG. 4).
Assay [4] deals with human coronavirus (HCoV-229E). Format: cell-based. Conditions: A549 cells, MOI 0.01, three days post infection (FIG. 3).
Where [5] appears, read: HMO 2 mg/ml added simultaneously with HCoV-229E ('During').
Setting [6] is: HMO 2 mg/ml added two hours post viral adsorption ('After').

Read-outs that look alike come from different tables or passages of the source.

In the case of Lacto-N-fucopentaose I [LNFP I], the “cellular adherence and cell viability in the presence of Tulane virus” value (“cellular adherence and cell viability” below) with Tulane virus is “increased cellular adherence and cell viability”.

Regarding `CC(=O)N[C@H]1[C@H]([C@H](O)[C@H](O)CO)O[C@@](O[C@H]2[C@@H](O)[C@@H](CO)O[C@@H](O[C@H]3[C@H](O)[C@@H](O)C(O)O[C@@H]3CO)[C@@H]2O)(C(=O)O)C[C@@H]1O` (stereo partly shown) [3′-SL, 3′-sialyllactose], the “A549 epithelial cell morphology after HCoV-229E infection” value in assay [1] is “little or no change in A549 epithelial cell morphology”. In the assay with Tulane virus, the “cellular adherence and cell viability” value is “increased cellular adherence and cell viability”. The “Type I and Type III interferon response (fold-induction) during HCoV-229E infection” value in assay [2] is recorded as “dramatically attenuated”. For the same molecule, in assay [3], the “A549 cell viability (live cell fluorescence, Calcein-AM)” value is on record as “retain viability”. Besides, the “loss of adherent cells, virus-mediated loss of cell viability and cytopathogenic effects” value is “reduced the loss of adherent cells, the virus-mediated loss of cell viability and the cytopathogenic effects” in assay [4] (setting [5]); “reduced the loss of adherent cells, the virus-mediated loss of cell viability and the cytopathogenic effects” in assay [4] (setting [6]).

With 2′-Fucosyllactose [2′-FL], the “A549 epithelial cell morphology after HCoV-229E infection” value in assay [1] is “little or no change in A549 epithelial cell morphology”. Further, the “cellular adherence and cell viability” value in the assay on Tulane virus was “increased cellular adherence and cell viability”. Moreover, in assay [2], the “Type I and Type III interferon response (fold-induction) during HCoV-229E infection” value is “dramatically attenuated”. The “A549 cell viability (live cell fluorescence, Calcein-AM)” value in assay [3] is “retain viability”. The “loss of adherent cells, virus-mediated loss of cell viability and cytopathogenic effects” value in assay [4] (setting [5]) is “reduced the loss of adherent cells, the virus-mediated loss of cell viability and the cytopathogenic effects”; in assay [4] (setting [6]) it was “reduced the loss of adherent cells, the virus-mediated loss of cell viability and the cytopathogenic effects”.
